Laboratory results from patent publication US10821115B2, “Compounds that inhibit Mcl-1 protein” (priority 2017, dated 2020).
Read-outs that look alike come from different tables or passages of the source.

Assays:
[1] = tested on: human multiple myeloma cell line, OPM-2; experiment: Cell viability assay (OPM-2 10 FBS), CellTiter-Glo; type: cell-based
Method in brief: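 Steps: plate cells at 3000/well in 10% FBS growth medium, add serially diluted compound, incubate 16 h at 37 °C with 5% CO2, add detection reagent and read luminescence after 25 min. A 4-parameter logistic model gives IC50.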

[2] = biological target: recombinant human Mcl-1 (residues 171-327) / Bim interaction (Homo sapiens (Human), UniProt Q07820); experiment: biochemical; type: binding; conditions: read-out: Mcl-1 HTRF IC50
Chain of recombinant human Mcl-1 (residues 171-327) / Bim interaction (Q07820 171-327): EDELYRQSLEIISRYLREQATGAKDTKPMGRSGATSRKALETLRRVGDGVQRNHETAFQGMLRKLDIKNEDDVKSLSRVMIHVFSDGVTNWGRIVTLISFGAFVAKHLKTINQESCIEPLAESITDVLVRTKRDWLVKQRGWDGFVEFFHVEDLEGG

[3] = TR-FRET, Mcl-1(171-327) / biotin-Bim (51-76)
[4] = Homo sapiens, OPM-2, 16 h, read-out: OPM-2 10% FBS IC50 IP, OPM-2 cells, 10% FBS, 16 h, CellTiter-Glo
[5] = Homo sapiens, OPM-2, 16 h, read-out: OPM-2 10% FBS IC50 IP, OPM-2 cells, 10% FBS, 16 h incubation
[6] = 0.1 nM Mcl-1(171-327), 0.05 nM biotin-Bim (51-76)

Structure (SMILES): CC[C@@H]1CC/C=C/[C@](O)(C(F)(F)F)[C@@H]2CC[C@H]2CN2C[C@@]3(CCCc4cc(Cl)ccc43)COc3ccc(cc32)C(=O)NS1(=O)=O [Example 100044, (1S,3′R,6′R,7′R,8′E,12′R)-6-chloro-12′-ethyl-7′-hydroxy-7′-(trifluoromethyl)-3,4-dihydro-2H,15′H-spiro[naphthalene-1,22′-[20]oxa[13]thia[1,14]diazatetracyclo [14.7.2.0~3,6~.0~19,24~]pentacosa[8,16,18,24]tetraen]-15′-one 13′,13′-dioxide]
- IC50 ([1]; read-out: OPM-2 10% FBS IC50 IP, OPM-2 cells, 10% FBS, 16 h, CellTiter-Glo): 7290 nM
- IC50 [2, 3]: 31.1 nM

Structure (SMILES): C[C@@H]1[C@@H](C)C/C=C/[C@@](CC(=O)N(C)C)(OCCN2CCOCC2)[C@@H]2CC[C@H]2CN2C[C@@]3(CCCc4cc(Cl)ccc43)COc3ccc(cc32)C(=O)NS1(=O)=O (single isomer, unassigned) [Example 100310]
- IC50 [1, 4]: 120 nM
- IC50 [2, 3]: 0.152 nM

Structure (SMILES): CO[C@@]1(c2cncc(CN(C)C)c2)/C=C/C[C@H](C)[C@@H](C)S(=O)(=O)NC(=O)c2ccc3c(c2)N(C[C@@H]2CC[C@H]21)C[C@@]1(CCCc2cc(Cl)ccc21)CO3 [Example 100554, (1S,3′R,6′R,7′S,8′E,11′S,12′R)-6-chloro-7′-(5-((dimethylamino)methyl)-3-pyridinyl)-7′-methoxy-11′,12′-dimethyl-3,4-dihydro-2H,15′H-spiro[naphthalene-1,22′-[20]oxa[13]thia[1,14]diazatetracyclo [14.7.2.0~3,6~.0~19,24~]pentacosa[8,16,18,24]tetraen]-15′-one 13′,13′-dioxide]
- IC50 [1, 4]: 519 nM
- IC50 [2, 3]: 0.231 nM

Structure (SMILES): CO[C@@]1(CC2=NCC(=O)O2)/C=C/C[C@H](C)[C@@H](C)S(=O)(=O)NC(=O)c2ccc3c(c2)N(C[C@@H]2CC[C@H]21)C[C@@]1(CCCc2cc(Cl)ccc21)CO3 [Example 100549, (1S,3′R,6′R,7′S,8′E,11′S,12′R)-6-chloro-7′-methoxy-11′,12′-dimethyl-7′-((5-oxo-4,5-dihydro-1,3-oxazol-2-yl)methyl)-3,4-dihydro-2H,15′H-spiro[naphthalene-1,22′-[20]oxa[13]thia[1,14]diazatetracyclo [14.7.2.0~3,6~.0~19,24~]pentacosa[8,16,18,24]tetraen]-15′-one 13′,13′-dioxide]
- IC50 [1, 4]: 545 nM
- IC50 [2, 3]: 2.57 nM

Structure (SMILES): CCN1[C@H](C)CN(C[C@@]2(OC)/C=C/C[C@H](C)[C@@H](C)S(=O)(=O)NC(=O)c3ccc4c(c3)N(C[C@@H]3CC[C@H]32)C[C@@]2(CCCc3cc(Cl)ccc32)CO4)C[C@@H]1C [Example 341, (1S,3′R,6′R,7′R,8′E,11′S,12′R)-6-chloro-7′-(((3R,5S)-4-ethyl-3,5-dimethyl-1-piperazinyl)methyl)-7′-methoxy-11′,12′-dimethyl-3,4-dihydro-2H,15′H-spiro[naphthalene-1,22′-[20]oxa[13]thia[1,14]diazatetracyclo [14.7.2.0~3,6~.0~19,24~]pentacosa[8,16,18,24]tetraen]-15′-one 13′,13′-dioxide]
- IC50 [1, 5]: 42 nM
- IC50 [2, 6]: 0.052 nM

Structure (SMILES): CO[C@@]1(CC(=O)On2nnc3cccnc32)/C=C/C[C@H](C)[C@@H](C)S(=O)(=O)NC(=O)c2ccc3c(c2)N(C[C@@H]2CC[C@H]21)C[C@@]1(CCCc2cc(Cl)ccc21)CO3 [Example 100576, (1S,3′R,6′R,7′S,8′E,11′S,12′R)-6-chloro-7′-methoxy-11′,12′-dimethyl-7′-(2-oxo-2-(3H-[1,2,3]triazolo[4,5-b]pyridin-3-yloxy)ethyl)-3,4-dihydro-2H,15′H-spiro[naphthalene-1,22′-[20]oxa[13]thia[1,14]diazatetracyclo [14.7.2.0~3,6~.0~19,24~]pentacosa[8,16,18,24]tetraen]-15′-one 13′,13′-dioxide]
- IC50 [1, 4]: 4090 nM
- IC50 [2, 3]: 1.15 nM

Structure (SMILES): CO[C@@]1(CN2CCN3CCOC[C@@H]3C2)/C=C/C[C@H](C)[C@@H](CCN2CCOCC2)S(=O)(=O)NC(=O)c2ccc3c(c2)N(C[C@@H]2CC[C@H]21)C[C@@]1(CCCc2cc(Cl)ccc21)CO3 [Example 361, (1S,3′R,6′R,7′S,8′E,11′S,12′R)-6-chloro-7′-((9aS)-hexahydropyrazino[2,1-c][1,4]oxazin-8(1H)-ylmethyl)-7′-methoxy-11′-methyl-12′-(2-(4-morpholinyl)ethyl)-3,4-dihydro-2H,15′H-spiro[naphthalene-1,22′-[20]oxa[13]thia[1,14]diazatetracyclo [14.7.2.0~3,6~.0~19,24~]pentacosa[8,16,18,24]tetraen]-15′-one 13′,13′-dioxide]
- IC50 [1, 5]: 28 nM
- IC50 [2, 6]: 0.101 nM

Structure (SMILES): CO[C@]1(CN2CCN3CCOC[C@H]3C2)/C=C/C[C@H](C)[C@@H](C)S(=O)(=O)NC(=O)c2ccc3c(c2)N(C[C@@H]2CC[C@H]21)C[C@@]1(CCCc2cc(Cl)ccc21)CO3 [Example 58, (1S,3′R,6′R,7′R,8′E,11′S,12′R)-6-chloro-7′-((9aR)-hexahydropyrazino[2,1-c][1,4]oxazin-8(1H)-ylmethyl)-7′-methoxy-11′,12′-dimethyl-3,4-dihydro-2H,15′H-spiro[naphthalene-1,22′-[20]oxa[13]thia[1,14]diazatetracyclo [14.7.2.0~3,6~.0~19,24~]pentacosa[8,16,18,24]tetraen]-15′-one 13′,13′-dioxide]
- IC50 [1, 5]: 95 nM
- IC50 [2, 6]: 0.719 nM

Structure (SMILES): C[C@@H]1[C@@H](C)C/C=C/[C@](O)(c2ccccn2)[C@@H]2CC[C@H]2CN2C[C@@]3(CCCc4cc(Cl)ccc43)COc3ccc(cc32)C(=O)NS1(=O)=O [Example 100180, (1S,3′R,6′R,7′R,8′E,11′S,12′R)-6-chloro-7′-hydroxy-11′,12′-dimethyl-7′-(2-pyridinyl)-3,4-dihydro-2H,15′H-spiro[naphthalene-1,22′-[20]oxa[13]thia[1,14]diazatetracyclo [14.7.2.0~3,6~.0~19,24~]pentacosa[8,16,18,24]tetraen]-15′-one 13′,13′-dioxide]
- IC50 [1, 4]: 4420 nM
- IC50 [2, 3]: 4.92 nM

Structure (SMILES): CCO[C@]1(CN2CCN3CCOC[C@@H]3C2)CCC[C@H](C)[C@@H](CCOC)S(=O)(=O)NC(=O)c2ccc3c(c2)N(C[C@@H]2CC[C@H]21)C[C@@]1(CCCc2cc(Cl)ccc21)CO3 [Example 518, (1S,3′R,6′R,7′R,11′S,12′R)-6-chloro-7′-ethoxy-7′-((9aS)-hexahydropyrazino[2,1-c][1,4]oxazin-8(1H)-ylmethyl)-12′-(2-methoxyethyl)-11′-methyl-3,4-dihydro-2H,15′H-spiro[naphthalene-1,22′-[20]oxa[13]thia[1,14]diazatetracyclo[14.7.2.0˜3,6˜.0˜19,24˜]pentacosa[16,18,24]trien]-15′-one 13′,13′-dioxide]
- IC50 [1, 5]: 224 nM
- IC50 [2, 6]: 0.164 nM

Structure (SMILES): CO[C@@]1(CN2CCOCC2)/C=C/C[C@H](C)[C@@H](C)S(=O)(=O)NC(=O)c2ccc3c(c2)N(C[C@@H]2CC[C@H]21)C[C@@]1(CCCc2cc(Cl)ccc21)CO3 [Example 52, (1S,3′R,6′R,7′S,8′E,11′S,12′R)-6-chloro-7′-methoxy-11′,12′-dimethyl-7′-(4-morpholinylmethyl)-3,4-dihydro-2H,15′H-spiro[naphthalene-1,22′-[20]oxa[13]thia[1,14]diazatetracyclo [14.7.2.0~3,6~.0~19,24~]pentacosa[8,16,18,24]tetraen]-15′-one 13′,13′-dioxide]
- IC50 [1, 5]: 330 nM
- IC50 [2, 6]: 0.522 nM

Structure (SMILES): CO[C@]1(CN2CCN3CCCC[C@@H]3C2)/C=C/C[C@H](C)[C@@H](CC=O)S(=O)(=O)NC(=O)c2ccc3c(c2)N(C[C@@H]2CC[C@H]21)C[C@@]1(CCCc2cc(Cl)ccc21)CO3 [Example 360, ((1S,3′R,6′R,7′R,8′E,11′S,12′R)-6-Chloro-7′-methoxy-11′-methyl-7′-((9aR)-octahydro-2H-pyrido[1,2-a]pyrazin-2-ylmethyl)-13′,13′-dioxido-15′-oxo-3,4-dihydro-2H-spiro[naphthalene-1,22′-[20]oxa[13]thia[1,14]diazatetracyclo[14.7.2.0-3,6˜.0˜19,24˜]pentacosa[8,16,18,24]tetraen]-12′-yl)acetaldehyde]
- IC50 [1, 5]: 2410 nM
- IC50 [2, 6]: 1.07 nM

Structure (SMILES): CO[C@]1(CN2C[C@@H](C)N(C(C)C)[C@H](C)C2)/C=C/C[C@H](C)[C@@H](C)S(=O)(=O)NC(=O)c2ccc3c(c2)N(C[C@@H]2CC[C@H]21)C[C@@]1(CCCc2cc(Cl)ccc21)CO3 [Example 343, (1S,3′R,6′R,7′R,8′E,11′S,12′R)-6-chloro-7′-(((3R,5R)-3,5-dimethyl-4-(1-methylethyl)-1-piperazinyl)methyl)-7′-methoxy-11′,12′-dimethyl-3,4-dihydro-2H,15′H-spiro[naphthalene-1,22′-[20]oxa[13]thia[1,14]diazatetracyclo [14.7.2.0~3,6~.0~19,24~]pentacosa[8,16,18,24]tetraen]-15′-one 13′,13′-dioxide]
- IC50 [1, 5]: 94 nM
- IC50 [2, 6]: 0.093 nM

Structure (SMILES): CO[C@@]1(CN2CCc3ccccc3C2)/C=C/C[C@H](C)[C@@H](C)S(=O)(=O)NC(=O)c2ccc3c(c2)N(C[C@@H]2CC[C@H]21)C[C@@]1(CCCc2cc(Cl)ccc21)CO3 [Example 148, (1S,3′R,6′R,7′S,8′E,11′S,12′R)-6-chloro-7′-(3,4-dihydro-2(1H)-isoquinolinylmethyl)-7′-methoxy-11′,12′-dimethyl-3,4-dihydro-2H,15′H-spiro[naphthalene-1,22′-[20]oxa[13]thia[1,14]diazatetracyclo [14.7.2.0~3,6~.0~19,24~]pentacosa[8,16,18,24]tetraen]-15′-one 13′,13′-dioxide]
- IC50 [1, 5]: 1610 nM
- IC50 [2, 6]: 1.2 nM

Structure (SMILES): C[C@@H]1[C@@H](C)CCC[C@]2(CN3CCOC[C@H]3CO2)[C@@H]2CC[C@H]2CN2C[C@@]3(CCCc4cc(Cl)ccc43)COc3ccc(cc32)C(=O)NS1(=O)=O (single isomer, unassigned) [Example 399]
- IC50 ([1]; read-out: OPM-2 10% FBS IC50 IP, OPM-2 cells, 10% FBS, 16 h incubation): 2100 nM
- IC50 [2, 6]: 0.401 nM
